Measured values from patent publication US10633419B2, “Immunomodulators” (BRISTOL-MYERS SQUIBB COMPANY, priority 2014, dated 2020).
pIC50: −log10 of the molar value. Where two headings read alike, the source gives them in different places. Starred links: 1 amine or outer side, 2 acyl side, 3 side chain; linkers in the order of their positions; H or OH if unused. Positions of bridges follow the written chain, without caps; N, C: chain ends. Non-standard residues stand in square brackets, D forms with d. Residues, ends and D or L forms follow the SMILES beside them. Groups on a side chain read outwards from the residue. *: point of attachment. δOrn(Nα-Octadecanedioyl) = O=C(O)CCCCCCCCCCCCCCCCC(=O)N[C@@H](CCCN*)C(=O)O; X6 = O=C(O)CCCCCCCCCCCCCCCCC(=O)N[C@@H](CCC(=O)NCCCOCCOCCOCCCN*)C(=O)O; X13 = O=C(O)CCCCCCCCCCCCCCC(=O)N[C@@H](CCC(=O)NCCCOCCOCCOCCCN*)C(=O)O; Trp(1-CH2COOH) = N[C@@H](Cc1cn(CC(=O)O)c2ccccc12)C(=O)O; X8 = O=C(O)CCCCCCCCCCCCNC(=O)CCC(=O)NCCCOCCOCCOCCCN*; X14 = O=C(O)CCCCCCCCCCNC(=O)CCC(=O)NCCCOCCOCCOCCCN*; X5 = O=C(O)CCCCCCCCCCCCCCCCC(=O)NCCCOCCOCCOCCCN*; C18 diacid = O=C(O)CCCCCCCCCCCCCCCCC(=O)*; γGlu = O=C(O)[C@H](CCC(=O)[*:2])N[*:1]; d(cisHyp) = O=C(O)[C@H]1C[C@@H](O)CN1; Hyp = O=C(O)[C@@H]1C[C@@H](O)CN1; NHhexadecyl = CCCCCCCCCCCCCCCCN*; NMeNle = CCCC[C@H](NC)C(=O)O; X20 = O=C(O)CCCCCCCCCCCCCN*; Pip = O=C(O)[C@@H]1CCCCN1; NMeA = CN[C@@H](C)C(=O)O; Aun = NCCCCCCCCCCC(=O)O; Dab = NCC[C@H](N)C(=O)O; Dap = NC[C@H](N)C(=O)O; Sar = CNCC(=O)O

Molecular target: T1, PD-L1 (Homo sapiens, UniProt Q9NZQ7)
T1 construct: hPDL1(19-239)-TVMV-His; made in house; host or cells: HEK293T
T1 sequence (Q9NZQ7 with tags, fused parts or gaps): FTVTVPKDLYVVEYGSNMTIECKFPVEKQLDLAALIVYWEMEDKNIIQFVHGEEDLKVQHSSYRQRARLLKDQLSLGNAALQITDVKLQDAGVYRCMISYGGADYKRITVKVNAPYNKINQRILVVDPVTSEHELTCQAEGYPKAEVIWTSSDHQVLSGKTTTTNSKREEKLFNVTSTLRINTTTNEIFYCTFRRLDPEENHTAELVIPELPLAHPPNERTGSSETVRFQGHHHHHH
Assay: PD-1/PD-L1 Homogenous Time-Resolved Fluorescence (HTRF) binding assay (PD-1-Ig/PD-L1-His)
Settings: inhibition of PD-1-Ig binding to PD-L1-TVMV-His, read-out: HTRF IC50
In short: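 Inhibitors pre-incubated 15 min with PD-L1-His (10 nM final), then PD-1-Ig (20 nM final) added for 15 min in dPBS/0.1% BSA/0.05% Tween-20. Eu-cryptate anti-Ig (1 nM) and APC anti-His (20 nM) added, 30 min equilibration, 665/620 nm HTRF ratio read.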

SMILES | pIC50 (value given as range class) | pIC50 (value given as number)
CCCC[C@H]1C(=O)N(C)[C@@H](CCCC)C(=O)N[C@@H](CC(C)C)C(=O)N[C@H](C(=O)NCC(=O)NCC(=O)N[C@@H](CC(=O)O)C(=O)NCCCCCCCCCCCCCC(=O)O)CSCC(=O)N[C@@H](Cc2ccc(O)cc2)C(=O)N(C)[C@@H](C)C(=O)N[C@@H](CC(N)=O)C(=O)N2CCC[C@H]2C(=O)N[C@@H](CN)C(=O)N[C@@H](CC(C)C)C(=O)N2C[C@H](O)C[C@@H]2C(=O)N[C@@H](Cc2c[nH]c3ccccc23)C(=O)N[C@@H](CCN)C(=O)N[C@@H](Cc2cn(CC(=O)O)c3ccccc23)C(=O)N1C [Example 11201] ({CH2CO}-Y[NMeA]NP[Dap]L[d(cisHyp)]W[Dab][Trp(1-CH2COOH)][NMeNle][NMeNle]LCGGD-X20; thioether N-14) | 7.00 to 8.00 | –
CCCC[C@H]1C(=O)N(C)[C@@H](CCCC)C(=O)N[C@@H](CC(C)C)C(=O)N[C@H](C(=O)NCCCOCCOCCOCCCNC(=O)CCCCCCCCCCCCCCCCC(=O)O)CSCC(=O)N[C@@H](Cc2ccc(O)cc2)C(=O)N(C)[C@@H](C)C(=O)N[C@@H](CC(N)=O)C(=O)N2CCC[C@H]2C(=O)N[C@@H](CN)C(=O)N[C@@H](CCC(N)=O)C(=O)N2C[C@H](O)C[C@H]2C(=O)N[C@@H](Cc2c[nH]c3ccccc23)C(=O)N[C@@H](CO)C(=O)N[C@@H](Cc2cn(CC(=O)O)c3ccccc23)C(=O)N1C [Example 11133] ({CH2CO}-Y[NMeA]NP[Dap]Q[Hyp]WS[Trp(1-CH2COOH)][NMeNle][NMeNle]LC-X5; thioether N-14) | – | 5.80
CCCC[C@H]1C(=O)N(C)[C@@H](CCCC)C(=O)N[C@@H](CC(C)C)C(=O)N[C@H](C(=O)NCC(=O)N[C@@H](Cc2cn(CC[C@H](NC(=O)CCCCCCCCCCCCCCCCC(=O)O)C(=O)O)nn2)C(=O)O)CSCC(=O)N[C@@H](Cc2ccc(F)cc2)C(=O)N2CCCC[C@H]2C(=O)N[C@@H](CC(=O)O)C(=O)N2CCC[C@H]2C(=O)N[C@@H](CN)C(=O)N[C@@H](CC(C)C)C(=O)N2C[C@H](O)C[C@H]2C(=O)N[C@@H](Cc2c[nH]c3ccccc23)C(=O)N[C@@H](CCN)C(=O)N[C@@H](Cc2cn(CC(=O)O)c3ccccc23)C(=O)N1C [Example 14122] | 7.00 to 8.00 | –
CCCC[C@H]1C(=O)N(C)[C@@H](CCCC)C(=O)N[C@@H](CC(C)C)C(=O)N[C@H](C(=O)NCCCOCCOCCOCCCNC(=O)CCC(=O)NCCCCCCCCCCC(=O)O)CSCC(=O)N[C@@H](Cc2ccc(O)cc2)C(=O)N(C)[C@@H](C)C(=O)N[C@@H](CCC(=O)O)C(=O)N2CCC[C@H]2C(=O)N[C@@H](Cc2cnc[nH]2)C(=O)N[C@@H](CCCCN)C(=O)N2C[C@H](O)C[C@H]2C(=O)N[C@@H](Cc2c[nH]c3ccccc23)C(=O)N[C@@H](CCCCN)C(=O)N[C@@H](Cc2cn(CC(=O)O)c3ccccc23)C(=O)N1C [Example 11139] ({CH2CO}-Y[NMeA]EPHK[Hyp]WK[Trp(1-CH2COOH)][NMeNle][NMeNle]LC-X14; thioether N-14) | 7.00 to 8.00 | –
CCCCCCCCCCCCCCCCNC(=O)[C@H](CC(=O)O)NC(=O)CNC(=O)CNC(=O)CNC(=O)[C@@H]1CSCC(=O)N[C@@H](Cc2ccc(O)cc2)C(=O)N(C)[C@@H](C)C(=O)N[C@@H](CC(=O)O)C(=O)N2CCC[C@H]2C(=O)N[C@@H](Cc2cnc[nH]2)C(=O)N[C@@H](CC(C)C)C(=O)N2C[C@H](O)C[C@H]2C(=O)N[C@@H](Cc2c[nH]c3ccccc23)C(=O)N[C@@H](CO)C(=O)N[C@@H](Cc2c[nH]c3ccccc23)C(=O)N(C)[C@@H](CCCC)C(=O)N(C)[C@@H](CCCC)C(=O)N[C@@H](CCCNC(=N)N)C(=O)N1 [Example 11120] ({CH2CO}-Y[NMeA]DPHL[Hyp]WSW[NMeNle][NMeNle]RCGGGD-NHhexadecyl; thioether N-14) | 5.80 to 7.00 | –
CCCC[C@H]1C(=O)N(C)[C@@H](CCCC)C(=O)N[C@@H](CC(C)C)C(=O)N[C@H](C(=O)NCCCOCCOCCOCCCNC(=O)CCC(=O)NCCCCCCCCCCCCC(=O)O)CSCC(=O)N[C@@H](Cc2ccc(O)cc2)C(=O)N(C)[C@@H](C)C(=O)N[C@@H](CC(N)=O)C(=O)N2CCC[C@H]2C(=O)N[C@@H](CN)C(=O)N[C@@H](CC(C)C)C(=O)N2C[C@H](O)C[C@H]2C(=O)N[C@@H](Cc2c[nH]c3ccccc23)C(=O)N[C@@H](CCN)C(=O)N[C@@H](Cc2cn(CC(=O)O)c3ccccc23)C(=O)N1C [Example 11214] ({CH2CO}-Y[NMeA]NP[Dap]L[Hyp]W[Dab][Trp(1-CH2COOH)][NMeNle][NMeNle]LC-X8; thioether N-14) | 7.00 to 8.00 | –
CCCC[C@H]1C(=O)N(C)[C@@H](CCCC)C(=O)N[C@@H](CC(C)C)C(=O)N[C@H](C(=O)NCC(=O)N[C@@H](CNC(=O)CC[C@H](NC(=O)CCCCCCCCCCCCCCCCC(=O)O)C(=O)O)C(=O)O)CSCC(=O)N[C@@H](Cc2ccc(O)cc2)C(=O)N(C)[C@@H](C)C(=O)N[C@@H](CC(N)=O)C(=O)N2CCC[C@H]2C(=O)N[C@@H](CN)C(=O)N[C@@H](CC(C)C)C(=O)N2C[C@H](O)C[C@H]2C(=O)N[C@@H](Cc2c[nH]c3ccccc23)C(=O)N[C@@H](CCN)C(=O)N[C@@H](Cc2cn(CC(=O)O)c3ccccc23)C(=O)N1C [Example 13153] ({CH2CO}-Y[NMeA]NP[Dap]L[Hyp]W[Dab][Trp(1-CH2COOH)][NMeNle][NMeNle]LCG[Dap]([γGlu-C18 diacid])-OH; thioether N-14) | 8.00 to 9.52 | –
CCCC[C@H]1C(=O)N(C)[C@@H](CCCC)C(=O)N[C@@H](CC(C)C)C(=O)N[C@H](C(=O)NCC(=O)N[C@@H](CC(=O)NCCCOCCOCCOCCCNC(=O)CC[C@H](NC(=O)CCCCCCCCCCCCCCCCC(=O)O)C(=O)O)C(=O)O)CSCC(=O)N[C@@H](Cc2ccc(O)cc2)C(=O)N(C)[C@@H](C)C(=O)N[C@@H](CC(N)=O)C(=O)N2CCC[C@H]2C(=O)N[C@@H](CN)C(=O)N[C@@H](CC(C)C)C(=O)N2C[C@H](O)C[C@@H]2C(=O)N[C@@H](Cc2c[nH]c3ccccc23)C(=O)N[C@@H](CCN)C(=O)N[C@@H](Cc2cn(CC(=O)O)c3ccccc23)C(=O)N1C [Example 11160] ({CH2CO}-Y[NMeA]NP[Dap]L[d(cisHyp)]W[Dab][Trp(1-CH2COOH)][NMeNle][NMeNle]LCGD(X6)-OH; thioether N-14) | 5.80 to 7.00 | –
CCCC[C@H]1C(=O)N(C)[C@@H](CCCC)C(=O)N[C@@H](CC(C)C)C(=O)N[C@H](C(=O)N(C)CC(=O)NCCCOCCOCCOCCCNC(=O)CC[C@H](NC(=O)CCCCCCCCCCCCCCC(=O)O)C(=O)O)CSCC(=O)N[C@@H](Cc2ccc(O)cc2)C(=O)N(C)[C@@H](C)C(=O)N[C@@H](CC(N)=O)C(=O)N2CCC[C@H]2C(=O)N[C@@H](CN)C(=O)N[C@@H](CC(C)C)C(=O)N2C[C@H](O)C[C@H]2C(=O)N[C@@H](Cc2c[nH]c3ccccc23)C(=O)N[C@@H](CCN)C(=O)N[C@@H](Cc2cn(CC(=O)O)c3ccccc23)C(=O)N1C [Example 11171] ({CH2CO}-Y[NMeA]NP[Dap]L[Hyp]W[Dab][Trp(1-CH2COOH)][NMeNle][NMeNle]LC[Sar]-X13; thioether N-14) | 8.00 to 9.52 | –
CCCC[C@H]1C(=O)N(C)[C@@H](CCCC)C(=O)N[C@@H](CC(C)C)C(=O)N[C@H](C(=O)NCCCOCCOCCOCCCNC(=O)CCC(=O)NCCCCCCCCCCC(=O)O)CSCC(=O)N[C@@H](Cc2ccc(O)cc2)C(=O)N(C)[C@@H](C)C(=O)N[C@@H](CC(N)=O)C(=O)N2CCC[C@H]2C(=O)N[C@@H](Cc2cnc[nH]2)C(=O)N[C@@H](CCC(=O)O)C(=O)N2C[C@H](O)C[C@H]2C(=O)N[C@@H](Cc2c[nH]c3ccccc23)C(=O)N[C@@H](CCN)C(=O)N[C@@H](Cc2cn(CC(=O)O)c3ccccc23)C(=O)N1C [Example 11075] ({CH2CO}-Y[NMeA]NPHE[Hyp]W[Dab][Trp(1-CH2COOH)][NMeNle][NMeNle]LC-X14; thioether N-14) | – | 8.15
CCCC[C@H]1C(=O)N(C)[C@@H](CCCC)C(=O)N[C@@H](CCC(=O)O)C(=O)N[C@H](C(=O)N[C@@H](Cc2cn(CCC(NC(=O)CCCCCCCCCCCCCCCCC(=O)O)C(=O)O)nn2)C(=O)O)CSCC(=O)N[C@@H](Cc2ccc(O)cc2)C(=O)N(C)[C@@H](C)C(=O)N[C@@H](CC(N)=O)C(=O)N2CCC[C@H]2C(=O)N[C@@H](CN)C(=O)N[C@@H](CC(C)C)C(=O)N2C[C@H](O)C[C@H]2C(=O)N[C@@H](Cc2c[nH]c3ccccc23)C(=O)N[C@@H](CCN)C(=O)N[C@@H](Cc2cn(CC(=O)O)c3ccccc23)C(=O)N1C (stereo partly shown) [Example 13130] | 8.00 to 9.52 | –
CCCC[C@H]1C(=O)N(C)[C@@H](CCCC)C(=O)N[C@@H](CC(C)C)C(=O)N[C@H](C(=O)NCC(=O)NCC(=O)NCC(=O)NCCCCCCCCCCC(=O)O)CSCC(=O)N[C@@H](Cc2ccc(O)cc2)C(=O)N(C)[C@@H](C)C(=O)N[C@@H](CC(=O)O)C(=O)N2CCC[C@H]2C(=O)N[C@@H](CN)C(=O)N[C@@H](CC(C)C)C(=O)N2C[C@H](O)C[C@H]2C(=O)N[C@@H](Cc2c[nH]c3ccccc23)C(=O)N[C@@H](CCN)C(=O)N[C@@H](Cc2cn(CC(=O)O)c3ccccc23)C(=O)N1C [Example 11096] ({CH2CO}-Y[NMeA]DP[Dap]L[Hyp]W[Dab][Trp(1-CH2COOH)][NMeNle][NMeNle]LCGGG[Aun]-OH; thioether N-14) | 7.00 to 8.00 | –
CCCC[C@H]1C(=O)N(C)[C@@H](CCCC)C(=O)N[C@@H](CC(C)C)C(=O)N[C@H](C(=O)NCC(=O)N[C@@H](CCC(=O)NCCC[C@H](NC(=O)CCCCCCCCCCCCCCCCC(=O)O)C(=O)O)C(=O)O)CSCC(=O)N[C@@H](Cc2ccc(O)cc2)C(=O)N2CCCC[C@H]2C(=O)N[C@@H](CC(N)=O)C(=O)N2CCC[C@H]2C(=O)N[C@@H](CN)C(=O)N[C@@H](CC(C)C)C(=O)N2C[C@H](O)C[C@H]2C(=O)N[C@@H](Cc2c[nH]c3ccccc23)C(=O)N[C@@H](CCN)C(=O)N[C@@H](Cc2cn(CC(=O)O)c3ccccc23)C(=O)N1C [Example 13142] ({CH2CO}-Y[Pip]NP[Dap]L[Hyp]W[Dab][Trp(1-CH2COOH)][NMeNle][NMeNle]LCGE(δOrn(Nα-Octadecanedioyl))-OH; thioether N-14) | 5.80 to 7.00 | –
